A short description of data set [1]: Cytotoxicity against human MRC5 cells assessed as cell growth inhibition at 10 uM after 7 days by MTT assay. The data set is classed as toxicity, cell-based. Conditions: mrc5, 168 h.
The nature of data set [2]: Cytotoxicity against human HL60 cells assessed as cell growth inhibition at 10 uM after 72 hrs by MTT assay. It counts as toxicity, cell-based. Conditions: hl-60, 72 h. On the technique in general: Tetrazolium dyes change colour on reduction, which living cells bring about.
A short description of data set [3]: Cytotoxicity against human HeLa cells assessed as cell growth inhibition at 10 uM after 72 hrs by MTT assay. It counts as toxicity, cell-based.
The subject of data set [4] is Trypanosoma brucei brucei. The experiment in a line: Antitrypanosomal activity against bloodstream form of Trypanosoma brucei brucei GUTat 3.1 after 72 hrs by Alamar blue assay. The data set is classed as functional. Conditions: GUTat 3.1, 72 h. Background: Resazurin is reduced to fluorescent resorufin, in cell work by metabolically active cells.

Usually IC50 stands for the midpoint of a concentration-inhibition curve. Read a low IC50 as greater potency. `C/C1=C\[C@@H](C(C)(C)C)OC(=O)[C@H](CC(C)C)N(C)C(=O)[C@H](C)N(C)C(=O)CNC(=O)[C@H](C(C)C)NC(=O)[C@@H]2CCCN2C(=O)[C@H](C)CC1`: the Activity result in data set [1], in data set [2] and in data set [3] was “Non-Toxic” in each case. In data set [4], the IC50 is 47 nM.
In turn, `Cc1ccc(C(=O)Nc2ccc(S(=O)(=O)O)c3cc(S(=O)(=O)O)cc(S(=O)(=O)O)c23)cc1NC(=O)c1cccc(NC(=O)Nc2cccc(C(=O)Nc3cc(C(=O)Nc4ccc(S(=O)(=O)O)c5cc(S(=O)(=O)O)cc(S(=O)(=O)O)c45)ccc3C)c2)c1` [SURAMIN] yielded an IC50 in data set [4] of 1200 nM.
